Molecules are shown by their SMILES. Residues, ends and D or L forms follow the SMILES beside them. *: point of attachment. Boc = CC(C)(C)OC(=O)*

Data set [1] concerns DK1622-wt. Description: Agglutination assay in liquid culture. It counts as cell-based, Myxococcus xanthus. To be noted: for dose dependence of flocculation/agglutination: 1~50 mg/L; for ability to induce agglutination (SAR): each compound added at 5 mg/L. The protocol:
(§1) The agglutination assay basically followed the method described by Velicer.[62] Briefly, DK1622 strains were cultured in CTT medium, whereas SDU70 strains were cultured in VY/2 medium. The aggregation-inducing compounds were added together with the initial inocula. After 3 days of growth, ∼2 mL of liquid cultures (in logarithmic growth stage) were transferred into cuvettes. Samples were left static for 15 min to visualize the clumping phenomenon. To plot the agglutination curves, the absorbance readings (600 nm) were measured on a UV-8000 spectrophotometer at differential intervals within 4 h. Decreasing the absorbance represents the settling of agglutinated cell clumps. Data points are the means of three replicates per strain.

The subject of another data set is SDU70-ΔcorA-corB. Description: Agglutination assay of corB-overexpression mutant. It counts as cell-based, Corallococcus exiguus. As to conditions: for morphology on induction: 5 mg/L; for clumping: as high as 50 mg/L. The method, then:
as §1

In the next data set the test system is SDU70-corB. The data set can be described thus: Agglutination assay of corB-overexpression mutant. The data set is classed as cell-based, Corallococcus exiguus. To be noted: as high as 50 mg/L. The protocol: as §1
A further data set relates to SDU70-ΔcorA. Description: Agglutination assay in liquid culture. The data set is classed as cell-based, Corallococcus exiguus. As to conditions: for dose dependence of flocculation/agglutination: 1~50 mg/L; for ability to induce agglutination (SAR): each compound added at 5 mg/L. The method, then:
as §1

The test system of a further data set is DK1622-corB. Description: Agglutination assay of corB-overexpression mutant. It counts as cell-based, Myxococcus xanthus. As to conditions: for agglutination induced by exogenous addition, in corB-overexpressing strain: 5 mg/L; for threshold concentration causing visible flocculation of DK1622-corB relative to DK1622-wt: 1 or 1b′ (Figures S12–S14). The protocol: as §1

A further data set addresses cathepsin L (Homo sapiens, UniProt P07711). The data set can be described thus: Protease inhibition assay (z-FR-AMC proteolysis). It counts as biochemical. To be noted: compounds 0~500 μM, pre-incubated 60 min at 37 °C, pH 5.5; read-out: inhibition activity against protease cathepsin L, IC50. The method, then:
(§2) The white needle crystals of 2 were obtained from MeOH solvent by slowly volatilizing in a glass vial under ambient condition. The X-ray diffraction measurement of crystals basically followed our previously published method.1 The crystallographic data for 2 was summarized […]6, and deposited in CCDC database under the access number 2278050. Antibacterial Assay. The antibacterial assay was performed by agar diffusion method.2 Single colony of Gram-positive bacteria Staphylococcus aureus, Gram-negative bacterium Acinetobacter baumannii, and fungus Candida albicans were picked and inoculated into 8 mL of LB liquid medium for overnight growth at 37 °C, respectively. Next day, the cultures were 100-fold diluted to 1x10^7 CFU/mL with fresh LB liquid medium, to grow at 37 °C until OD600 0.4~0.6. Compounds 1 and 2 were dissolved […] The disks were then placed onto an agar plate containing a soft agar overlay with the indicator microorganisms. […] MES, 5 mM DTT, pH 5.5) was detected by proteolysis of fluorescent substrate z-FR-AMC. […] The absorbance was measured by microplate reader (Spectra max GEMINI XPS, excitation wavelength 380 nm, emission wavelength 460 nm). […] The mixture was centrifuged at 12000 rpm for 20 minutes, and the supernatant was subsequently analyzed HPLC-DAD. […] The resulting samples were collected by capillary tubes and analyzed by Microscale Thermophoresis (Monolith NT.115). […]

Data set [2] can be described thus: Cytotoxic activity on human cell lines. The data set is classed as cell-based. As to conditions: KYSE410 esophageal squamous carcinoma cells, mean value of three replicates.
Data set [3] in a line: Cytotoxic activity on human cell lines. As to conditions: PC3 prostatic carcinoma cells, mean value of three replicates. It counts as cell-based.
A short description of data set [4]: Cytotoxic activity on human cell lines. It counts as cell-based. As to conditions: A549 lung carcinoma cells, mean value of three replicates.
Data set [5] in a line: Cytotoxic activity on human cell lines. The data set is classed as cell-based. As to conditions: HepG2 hepatocarcinoma cells, mean value of three replicates.
Another data set has as its system four human cell lines. The data set can be described thus: Antiproliferative activity, summary statement. The data set is classed as cell-based. As to conditions: four human cell lines (Table S2).
For another data set, the system named is Candida albicans. The data set can be described thus: Agar diffusion assay against fungus. The data set is classed as cell-based. To be noted: 50 μg/disc. The method, then:
as §2
(Agar diffusion results depend on both activity and mobility in agar.)

The subject of a further data set is CorB. The data set can be described thus: MST assay of CorB to coralinone A. It counts as binding, Corallococcus exiguus SDU70. To be noted: 15.2 μM to 0.5 mM test compound. The method, then:
as §2

Data set [6] has as its system DK1622-wt. The data set can be described thus: Trypan blue binding assay of EPS production. It counts as cell-based, Myxococcus xanthus. To be noted: DK1622-wt supplemented with 5 mg/L. The method, then:
Exopolysaccharide (EPS) production was measured according to the method published by Black et al.[64] Briefly, wild type and mutant strains of DK1622 were inoculated in liquid CTT medium and incubated for 24 h at 30 °C and 200 rpm. The cells grown to the logarithmic phase were collected by centrifugation, and the supernatants were discarded. Cells were resuspended and adjusted to a density of 5 × 10^8 CFU/mL with TPM buffer (1.97 g/L MgSO4·7H2O, 1 M Tris-HCl, 10 mL 0.1 M PBS, pH 7.6). Next, the cell suspension was evenly mixed with an equal volume of Trypan Blue dye solution (150 μg/mL), and TPM buffer was used as a blank control. The supernatant was centrifuged at 12000 rpm for 5 min, and 200 μL was used for the absorbance measurement at 585 nm. Each experiment was performed in triplicate.

The test system of another data set is Acinetobacter baumannii. The data set can be described thus: Antibacterial assay, agar diffusion method. The data set is classed as cell-based. As to conditions: 50 μg/disc. The method, then:
(§3) The white needle crystals of 2 were obtained from MeOH solvent by slowly volatilizing in a glass vial under ambient condition. The X-ray diffraction measurement of crystals basically followed our previously published method.1 The crystallographic data for 2 was summarized […]6, and deposited in CCDC database under the access number 2278050. Antibacterial Assay. The antibacterial assay was performed by agar diffusion method.2 Single colony of Gram-positive bacteria Staphylococcus aureus, Gram-negative bacterium Acinetobacter baumannii, and fungus Candida albicans were picked and inoculated into 8 mL of LB liquid medium for overnight growth at 37 °C, respectively. Next day, the cultures were 100-fold diluted to 1x10^7 CFU/mL with fresh LB liquid medium, to grow at 37 °C until OD600 0.4~0.6. Compounds 1 and 2 were dissolved […] The disks were then placed onto an agar plate containing a soft agar overlay with the indicator microorganisms. Kanamycin (for S. aureus) and apramycin (for C. albicans and E. coli) at a concentration of 1 mg/mL were used as positive controls, and the solvent methanol as the negative control. […] Protease inhibition assay. […] MES, 5 mM DTT, pH 5.5) was detected by proteolysis of fluorescent substrate z-FR-AMC. Enzyme was pre- incubated with a gradient concentration (0~500 μM) of compounds for 60 min at 37 °C in a black 96-well plate. Then, 20 μM of z-FR-AMC was added to each well to make up 200 μ[…] , and the reaction continued for another 30 min. The absorbance was measured by microplate reader (Spectra max GEMINI XPS, excitation wavelength 380 nm, emission wavelength 460 nm). The protease inhibitor E-64 was used as positive control and DMSO was the negative control. All the experiments were completed in triplicate. Enzymatic cleavage of 1 and 1b' using CorB. The reaction was conducted in a 50 μL system comprising of 20 mM Tris-HCl buffer (pH 7.5), 150 mM NaCl, 0.22 mM CorB, and 0.05 mg 1, or 1b' (dissolved in DMSO) respectively. Tris-HCl buffer was used as a negative control, and all experiments were repeated in triplicates. The reactions were incubated at 37 °C for 12 hours and then terminated by adding 50 μL of MeOH. The mixture was centrifuged at 12000 rpm for 20 minutes, and the supernatant was subsequently analyzed HPLC-DAD. MST assay. The purified CorB was mixed with an equal volume of RED-tris-NTA dye solution and incubated in the dark for 30 min, centrifuged at 12000 rpm, 4 °C for 10 min. Then, 10 μL of the CorB-dye complex was mixed with an equal volume of test compound solution ranging from 15.2 μM to 0.5 mM. The resulting samples were collected by capillary tubes and analyzed by Microscale Thermophoresis (Monolith NT.115). 4

The subject of the next data set is Staphylococcus aureus. Description: Antibacterial assay, agar diffusion method. It counts as cell-based. To be noted: 50 μg/disc. The protocol: as §3
The next data set has as its system DK1622. The data set can be described thus: Confocal laser scanning microscopy of cells and EPS. As to conditions: DK1622+1. It counts as cell-based, Myxococcus xanthus. The method, then:
The microscopic observation of SDU70 and DK1622 basically followed our recently published methods.[63]Scanning electron microscopy (SEM): DK1622 and SDU70 strains (wild type and mutants) were grown to logarithmic stage. The cells were washed three times with 1× PBS buffer and then fixed overnight at 4 °C in 2.5% glutaraldehyde solution. Samples were prepared using the standard ethanol dehydration method,[62] and observed by QUANTA FEG250 scanning electron microscope (Thermo Fisher Scientific, USA). Confocal laser scanning microscopy (CLSM): DK1622 strains were grown in CTT liquid medium for 24 h, while SDU70 strains were grown in VY/2 medium for 72 h. The presence of EPS, eDNA dead cells, and alive cells were labeled with Alexa 350-labeled wheat germ lectin (WGA), SYTOX Orange, and STYO 9, respectively. The images were taken on LSM 900 CLSM (Zeiss, Germany), using 63× oil immersed objective lens. The CLSM images were captured by ZEN software (Zeiss, Germany) and exported by using ImageJ software.

cathepsin L, sequence (P07711 114-333, species assumed): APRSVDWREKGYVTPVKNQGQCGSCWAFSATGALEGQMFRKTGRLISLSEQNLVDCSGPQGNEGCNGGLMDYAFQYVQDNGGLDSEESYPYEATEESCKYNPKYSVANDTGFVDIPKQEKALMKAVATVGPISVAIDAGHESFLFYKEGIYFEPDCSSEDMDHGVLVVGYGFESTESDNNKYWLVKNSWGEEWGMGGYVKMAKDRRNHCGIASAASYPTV

As for `CC(=O)[C@@H](NC(=O)[C@H](CC(C)C)NC(=O)OC(C)(C)C)C(C)C` [1b′], in the data set on DK1622-wt [1], the “dose dependence of flocculation/agglutination” value is reported as “dose-dependent manner” and the “ability to induce agglutination (SAR)” value is “effective”. Besides, in the data set on SDU70-ΔcorA-corB, the morphology on induction result is “maintained the dispersed morphology” and the clumping result is listed as “did not clump”. Besides, in the data set on SDU70-corB, the clumping result is recorded as “did not clump”. Also, in the data set with SDU70-ΔcorA, the “dose dependence of flocculation/agglutination” value is given as “dose-dependent manner” and the “ability to induce agglutination (SAR)” value was “effective”. Also, in the data set with DK1622-corB, the “agglutination induced by exogenous addition, in corB-overexpressing strain” value was “substantially abated agglutination” and the “threshold concentration causing visible flocculation of DK1622-corB relative to DK1622-wt” value is 3–4 times.

A word on the IC50: it is the concentration needed to halve the response being measured. `CC(C)C[C@H](NC(=O)OC(C)(C)C)C(=O)N[C@H](C=O)C(C)C` [10b′] (Boc-Leu-Val-aldehyde): the IC50 at cathepsin L was determined as 0.23 µM.

Regarding `CC(=O)O[C@@]12CO[C@@H]1C[C@H](O)[C@@]1(C)C(=O)[C@H](O)C3=C(C)[C@@H](OC(=O)[C@H](O)[C@@H](NC(=O)OC(C)(C)C)c4ccccc4)C[C@@](O)([C@@H](OC(=O)c4ccccc4)[C@H]21)C3(C)C` [Docetaxel, reference compound], the IC50 in [2] turned out to be 17.8 µM; in data set [3], 71.9 µM; in data set [4], 33.1 µM; in data set [5], 10.3 µM.

For `Cc1nc(CC(C)C)c(=O)[nH]c1C(C)C` [compound 1, coralinone A], in the data set with four human cell lines, the antiproliferative activities result was “Neither 1 nor 2 showed any significant antiproliferative activities”. Further, the IC50 was found to be 463 µM in [2], 796 µM in data set [3], 383 µM in [4] and 892 µM in data set [5]. Besides, the growth inhibition entry in the data set with Candida albicans, in the data set with Acinetobacter baumannii and in the data set with Staphylococcus aureus was “No growth inhibition” throughout. The “flocculation at 5 mg/L in dose series” value in the data set on DK1622-wt [1] (5 mg/L) and in the data set with SDU70-ΔcorA (5 mg/L) was “severe flocculation” each time. Moreover, the “flocculation on exogenous supplementation” value in the data set on DK1622-wt [1] (5 mg/L, liquid culture) is “led to flocculation”. The “dose dependence of flocculation/agglutination” value with DK1622-wt [1] and in the data set on SDU70-ΔcorA was “dose-dependent manner” each time. Moreover, the “concentration that started to be active in causing flocculation” value with DK1622-wt [1] (dose series 1~50 mg/L) and in the data set with SDU70-ΔcorA (dose series 1~50 mg/L) was 2 mg/L in each case. For the same molecule, the “ability to induce agglutination (SAR)” value in the data set with DK1622-wt [1] and in the data set on SDU70-ΔcorA was “effective” each time. The “binding to CorB (MST)” value in the data set with CorB is listed as “did not disturb CorB-dye binding”. Besides, in the data set with SDU70-ΔcorA-corB, the morphology on induction entry is “maintained the dispersed morphology”. Moreover, the clumping entry with SDU70-ΔcorA-corB and in the data set on SDU70-corB was “did not clump” each time. In the data set on DK1622-wt [6], the EPS production result is recorded as “cumulation of EPS”. The “restoration of pellet morphogenesis by chemical complementation” value in the data set on SDU70-ΔcorA (5 mg/L, shaken liquid culture) is listed as “restored”. For the same molecule, the “EPS production (Alexa 350-WGA blue signal in Merge photos)” value in the data set with DK1622 is recorded as “higher production of EPS”. Besides, the “agglutination induced by exogenous addition, in corB-overexpressing strain” value in the data set on DK1622-corB was “substantially abated agglutination”. Besides, the “threshold concentration causing visible flocculation of DK1622-corB relative to DK1622-wt” value with DK1622-corB is 3–4 times.

For `CC[C@H](C)c1[nH]c(=O)c(CC(C)C)nc1C` [compound 2, coralinone B], the antiproliferative activities entry in the data set with four human cell lines was “Neither 1 nor 2 showed any significant antiproliferative activities”. Moreover, the IC50 was determined as 312 µM in data set [2], 432 µM in data set [3], 145 µM in data set [4] and 504 µM in data set [5]. For the same molecule, the growth inhibition result with Candida albicans, in the data set on Acinetobacter baumannii and with Staphylococcus aureus was “No growth inhibition” in each case.

The values above are taken from article PMC10979478, “Deciphering the Biosynthesis and Physiological Function of 5-Methylated Pyrazinones Produced by Myxobacteria” (ACS Central Science, 2024).
